Drawing on ChEMBL document CHEMBL4033665, “Synthesis and applications of benzohydroxamic acid-based histone deacetylase inhibitors” (Eur J Med Chem, 2017), this text covers IC50 and inhibition for 2 molecules.

The target of experiment [1] is T1, Histone deacetylase 1 (Homo sapiens, UniProt Q13547). The experiment is described as follows: Inhibition of HDAC1 (unknown origin) by fluorescence assay.
Experiment [2] deals with Histone deacetylase 4 (Homo sapiens, UniProt P56524). The experiment can be described thus: Inhibition of HDAC4 (unknown origin) by fluorescence assay.
Sequence of Histone deacetylase 4 (P56524 whole entry): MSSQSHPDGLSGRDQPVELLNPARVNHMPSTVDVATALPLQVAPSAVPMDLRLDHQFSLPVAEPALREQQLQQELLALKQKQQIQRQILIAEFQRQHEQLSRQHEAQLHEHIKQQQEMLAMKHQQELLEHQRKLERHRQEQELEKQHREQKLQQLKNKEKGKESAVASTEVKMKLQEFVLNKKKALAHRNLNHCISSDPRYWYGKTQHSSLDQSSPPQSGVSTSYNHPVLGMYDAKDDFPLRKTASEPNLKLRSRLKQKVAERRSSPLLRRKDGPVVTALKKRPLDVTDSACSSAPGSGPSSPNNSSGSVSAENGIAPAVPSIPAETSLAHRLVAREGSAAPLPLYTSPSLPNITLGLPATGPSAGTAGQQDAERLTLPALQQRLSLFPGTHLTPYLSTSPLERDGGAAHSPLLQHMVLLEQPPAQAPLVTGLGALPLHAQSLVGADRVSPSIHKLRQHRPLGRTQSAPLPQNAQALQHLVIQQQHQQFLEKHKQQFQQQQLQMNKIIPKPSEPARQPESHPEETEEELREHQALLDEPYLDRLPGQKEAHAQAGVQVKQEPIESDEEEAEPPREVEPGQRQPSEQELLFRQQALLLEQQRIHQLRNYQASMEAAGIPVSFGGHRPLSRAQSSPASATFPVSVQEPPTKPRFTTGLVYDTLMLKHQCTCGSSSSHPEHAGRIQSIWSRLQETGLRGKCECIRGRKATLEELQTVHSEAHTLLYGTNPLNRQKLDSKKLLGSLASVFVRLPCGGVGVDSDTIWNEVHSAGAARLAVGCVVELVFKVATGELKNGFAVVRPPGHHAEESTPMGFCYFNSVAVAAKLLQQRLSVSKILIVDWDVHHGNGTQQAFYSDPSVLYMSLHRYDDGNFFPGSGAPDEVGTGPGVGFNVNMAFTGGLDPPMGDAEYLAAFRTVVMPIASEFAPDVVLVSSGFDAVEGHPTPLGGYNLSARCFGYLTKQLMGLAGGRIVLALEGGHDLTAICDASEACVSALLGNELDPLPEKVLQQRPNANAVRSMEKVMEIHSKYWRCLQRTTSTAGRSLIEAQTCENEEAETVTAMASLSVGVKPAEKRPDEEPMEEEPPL
The target in experiment [3] is T2, Histone deacetylase 8 (Homo sapiens, UniProt Q9BY41).
T2 sequence (Q9BY41 whole entry): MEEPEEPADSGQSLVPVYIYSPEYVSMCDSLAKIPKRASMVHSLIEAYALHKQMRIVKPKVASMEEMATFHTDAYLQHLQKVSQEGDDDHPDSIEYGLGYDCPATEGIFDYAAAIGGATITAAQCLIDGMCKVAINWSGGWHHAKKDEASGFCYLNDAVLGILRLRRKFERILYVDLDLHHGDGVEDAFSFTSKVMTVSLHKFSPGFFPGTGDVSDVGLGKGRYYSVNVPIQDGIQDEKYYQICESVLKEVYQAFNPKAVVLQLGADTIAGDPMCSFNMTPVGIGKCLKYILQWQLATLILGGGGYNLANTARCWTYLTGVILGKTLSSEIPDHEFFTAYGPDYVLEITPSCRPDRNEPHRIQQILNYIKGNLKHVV
The experiment can be described thus: Inhibition of HDAC8 (unknown origin) by fluorescence assay.

The target of experiment [4] is T3, Protein deacetylase HDAC6 (Homo sapiens, UniProt Q9UBN7).
T3 sequence (Q9UBN7 whole entry): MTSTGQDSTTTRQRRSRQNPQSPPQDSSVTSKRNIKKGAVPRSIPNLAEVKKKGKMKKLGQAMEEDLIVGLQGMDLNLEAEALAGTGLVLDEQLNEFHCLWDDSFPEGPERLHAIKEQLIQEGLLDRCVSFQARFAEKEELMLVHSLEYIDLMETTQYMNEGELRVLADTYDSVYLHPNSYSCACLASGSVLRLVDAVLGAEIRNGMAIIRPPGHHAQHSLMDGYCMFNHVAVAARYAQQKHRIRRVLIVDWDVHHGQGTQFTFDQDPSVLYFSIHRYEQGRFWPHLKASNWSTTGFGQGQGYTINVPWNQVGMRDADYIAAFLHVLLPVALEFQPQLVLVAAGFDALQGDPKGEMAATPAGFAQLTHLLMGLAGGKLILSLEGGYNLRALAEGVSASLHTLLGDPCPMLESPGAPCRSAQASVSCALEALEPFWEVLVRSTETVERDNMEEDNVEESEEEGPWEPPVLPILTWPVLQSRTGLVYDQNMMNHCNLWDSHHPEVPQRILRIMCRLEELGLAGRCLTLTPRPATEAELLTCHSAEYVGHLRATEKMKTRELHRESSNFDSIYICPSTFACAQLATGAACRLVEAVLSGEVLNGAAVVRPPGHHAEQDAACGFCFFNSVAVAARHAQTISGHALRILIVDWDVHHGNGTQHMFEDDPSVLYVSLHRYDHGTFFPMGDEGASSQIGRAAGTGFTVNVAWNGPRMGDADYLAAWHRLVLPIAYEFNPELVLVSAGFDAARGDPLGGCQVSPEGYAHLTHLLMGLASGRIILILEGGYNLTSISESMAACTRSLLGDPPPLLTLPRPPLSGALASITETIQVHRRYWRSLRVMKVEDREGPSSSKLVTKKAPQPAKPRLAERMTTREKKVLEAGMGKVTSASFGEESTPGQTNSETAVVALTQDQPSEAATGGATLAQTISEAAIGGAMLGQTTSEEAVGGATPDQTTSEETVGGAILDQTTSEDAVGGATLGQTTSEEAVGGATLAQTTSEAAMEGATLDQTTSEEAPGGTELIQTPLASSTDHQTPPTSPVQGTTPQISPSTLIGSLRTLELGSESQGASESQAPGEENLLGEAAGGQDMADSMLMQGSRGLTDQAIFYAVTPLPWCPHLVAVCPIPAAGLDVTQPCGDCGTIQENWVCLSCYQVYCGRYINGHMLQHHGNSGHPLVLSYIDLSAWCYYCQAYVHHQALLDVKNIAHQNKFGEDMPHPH
The experiment is described as follows: Inhibition of HDAC6 (unknown origin) by fluorescence assay.

The target of experiment [5] is Histone deacetylase 3 (Homo sapiens, UniProt O15379). The experiment can be described thus: Inhibition of HDAC3 (unknown origin) by fluorescence assay.
Sequence of Histone deacetylase 3 (O15379 whole entry): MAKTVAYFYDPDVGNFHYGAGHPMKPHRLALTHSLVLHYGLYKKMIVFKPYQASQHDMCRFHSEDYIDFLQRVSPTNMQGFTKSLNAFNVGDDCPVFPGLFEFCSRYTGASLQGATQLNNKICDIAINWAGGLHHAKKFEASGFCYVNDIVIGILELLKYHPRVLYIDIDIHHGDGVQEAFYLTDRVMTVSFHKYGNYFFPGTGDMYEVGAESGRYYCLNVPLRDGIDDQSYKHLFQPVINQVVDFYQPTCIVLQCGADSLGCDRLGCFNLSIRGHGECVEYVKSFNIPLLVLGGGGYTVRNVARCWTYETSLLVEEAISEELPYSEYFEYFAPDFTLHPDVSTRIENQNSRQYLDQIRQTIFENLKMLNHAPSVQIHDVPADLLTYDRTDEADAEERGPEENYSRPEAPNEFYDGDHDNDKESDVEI
The nature of experiment [6]: Inhibition of HDAC activity in human HeLa nuclear extract.
Experiment [7] addresses Histone deacetylase 2 (Homo sapiens, UniProt Q92769). The experiment is described as follows: Inhibition of HDAC2 (unknown origin) by fluorescence assay.
Experiment [8] has as its target T4, Protein deacetylase HDAC6 (Homo sapiens) (UniProt Q9UBN7).
T4 sequence (whole entry): T3 sequence (Q9UBN7 whole entry)
The experiment is described as follows: Inhibition of human HDAC6 at 100 uM after 90 mins by fluorescence assay.

The target in experiment [9] is T1, Histone deacetylase 1. The experiment is described as follows: Inhibition of human HDAC1 using MAL as substrate at 100 uM after 90 mins by fluorescence assay.
In experiment [10] the target is T2, Histone deacetylase 8. The experiment is described as follows: Inhibition of human HDAC8 using ZMTFAL as substrate after 90 mins by fluorescence assay.

Molecules are shown by their SMILES. pIC50: −log10 of the molar value.

T1 sequence (Q13547 whole entry): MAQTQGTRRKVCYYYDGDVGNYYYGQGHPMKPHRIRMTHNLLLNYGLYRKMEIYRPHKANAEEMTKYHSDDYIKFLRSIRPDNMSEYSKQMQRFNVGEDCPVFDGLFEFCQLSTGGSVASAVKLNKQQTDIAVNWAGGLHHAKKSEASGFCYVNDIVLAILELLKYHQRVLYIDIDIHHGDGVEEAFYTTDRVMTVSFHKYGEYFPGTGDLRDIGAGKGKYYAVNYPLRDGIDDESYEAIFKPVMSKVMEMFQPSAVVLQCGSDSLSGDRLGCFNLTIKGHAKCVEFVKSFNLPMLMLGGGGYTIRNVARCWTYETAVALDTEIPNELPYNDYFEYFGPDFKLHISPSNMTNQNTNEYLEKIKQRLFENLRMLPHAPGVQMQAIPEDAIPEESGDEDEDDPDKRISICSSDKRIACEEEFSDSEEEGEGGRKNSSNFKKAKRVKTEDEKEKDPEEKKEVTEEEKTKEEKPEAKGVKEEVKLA
Sequence of Histone deacetylase 2 (Q92769 whole entry): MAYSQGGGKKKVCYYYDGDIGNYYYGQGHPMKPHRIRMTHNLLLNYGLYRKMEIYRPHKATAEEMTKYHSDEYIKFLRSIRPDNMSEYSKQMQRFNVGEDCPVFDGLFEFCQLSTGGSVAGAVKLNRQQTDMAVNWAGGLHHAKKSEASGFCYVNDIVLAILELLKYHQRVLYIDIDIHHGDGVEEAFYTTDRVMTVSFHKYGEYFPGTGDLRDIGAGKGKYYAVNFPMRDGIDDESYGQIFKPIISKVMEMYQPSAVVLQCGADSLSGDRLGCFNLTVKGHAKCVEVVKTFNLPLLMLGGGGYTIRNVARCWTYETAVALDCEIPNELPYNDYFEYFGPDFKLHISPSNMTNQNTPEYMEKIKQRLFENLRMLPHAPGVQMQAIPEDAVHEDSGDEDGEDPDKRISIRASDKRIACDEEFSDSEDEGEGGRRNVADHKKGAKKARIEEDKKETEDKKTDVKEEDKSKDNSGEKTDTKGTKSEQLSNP

Regarding `O=C(NO)c1cccc(-c2csc(CSc3ccccc3)n2)c1`, the negative-log IC50 (pIC50) (as a rule, the negative decadic logarithm of the IC50, by convention in mol/L) in experiment [1] was less than 4.00; in [2] it was less than 4.00; in [3], 6.82; in [4] it was 4.85; in experiment [5], 4.92; in experiment [6], less than 4.00. In [7], the negative-log IC50 (pIC50) was less than 4.00.
For the molecule `O=C1Nc2ccccc2/C1=N/NC(=S)Nc1ccc(C(=O)NO)cc1`, the inhibition (in general, the relative decrease from the control value, in per cent) was 41% in experiment [8] and less than 10% in experiment [9]. Besides, the negative-log IC50 (pIC50) in experiment [10] is 4.80.
